We go through nine compounds from US9243039B2, “Bipartite inhibitors of bacterial RNA polymerase: Sal-target-inhibitor/nucleoside-analog-inhibitor conjugates” (priority 2012, dated 2016).

One data set addresses Escherichia coli RNAP (Escherichia coli, UniProt P0A8T7+P0A8V2). As to the kind of experiment: Fluorescence-detected RNAP assay, Escherichia coli RNAP. It counts as biochemical. The settings on record: for IC50: fluorescent-detected RNAP assays. The protocol:
Fluorescence-detected RNAP assays with Escherichia coli RNAP were performed by a modification of the procedure of Kuhlman et al., 2004 [Kuhlman et al., Anal. Biochem. 324:183-190, 2004]. Reaction mixtures contained (20 μl): […] test compound, 75 nM Escherichia coli RNAP […] holoenzyme, 20 nM 384 by DNA fragment containing the bacteriophage T4 N25 promoter, 100 μM ATP, 100 μM GTP, 100 μM UTP, 100 μM CTP, 50 mM Tris-HCl, pH 8.0, 100 mM KCl, 10 mM MgCl2, 1 mM DTT, 10 μg/ml bovine serum albumin, and 5.5% glycerol. Reaction components other than DNA and NTPs were pre-incubated for 10 min at 37° C. Reactions were carried out by addition of DNA and incubation for 5 min at 37° C., followed by addition of NTPs and incubation for 60 min at 37° C. DNA was removed by addition of 1 μl 5 mM CaCl2 and 2 U DNaseI (Ambion, Inc.), followed by incubation for 90 min at 37° C. RNA was quantified by addition of 100 μl RiboGreen RNA Quantitation Reagent (Invitrogen, Inc.; 1:500 dilution in Tris-HCl, pH 8.0, 1 mM EDTA), followed by incubation for 10 min at 25° C., followed by measurement of fluorescence intensity [excitation wavelength=485 nm and emission wavelength=535 nm; QuantaMaster QM1 spectrofluorometer (PTI, Inc.)].
(§1) Half-maximal inhibitory concentrations (IC50s) were calculated by non-linear regression in SigmaPlot (SPSS, Inc.).

For another data set, the system named is human RNAP I/II/III. Description: Radiochemical assay with human RNAP I, II and III (HeLaScribe nuclear extract). It counts as biochemical. The protocol: Radiochemical assays with human RNAP I, II, and III were performed essentially as described [Sawadogo and Roeder, Cell 43:165-75, 1985]. Reaction mixtures contained (20 μl): 0-100 μM test compound, 8 U HeLaScribe Nuclear Extract (Promega, Inc.), 1 μg human placental DNA (Sigma-Aldrich), 400 μM ATP, 400 μM [α^32P]UTP (0.11 Bq/fmol), 400 μM CTP, 400 μM GTP, 50 mM Tris-HCl, pH 8.0, 7 mM HEPES-NaOH, 70 mM (NH4)2SO4, 50 mM KCl, 12 mM MgCl2, 5 mM DTT, 0.1 mM EDTA, 0.08 mM phenylmethylsulfonyl fluoride, and 16% glycerol. Reaction components other than DNA and NTPs were pre-incubated 10 min at 30° C., DNA was added and reaction mixtures were incubated 15 min at 30° C., NTPs were added and reaction mixtures were incubated 60 min at 30° C. Reaction mixtures were spotted on DE81 filter discs (Whatman, Inc.; pre-wetted with water) and incubated 1 min at room temperature. Filters were washed with 3×3 ml Na2HPO4, 2×3 ml water, and 3 ml ethanol, using a filter manifold (Hoefer, Inc.). Filters were placed in scintillation vials containing 10 ml Scintiverse BD Cocktail (Thermo Fisher, Inc.), and radioactivity was quantified by scintillation counting (LS6500; Beckman-Coulter, Inc.).
as §1

Data set [1] deals with Escherichia coli D21f2toIC. Description: Antibacterial activity, broth microdilution, Escherichia coli D21f2tolC. Type of data set: cell-based. The conditions noted are these: for MIC50: Escherichia coli, D21F2TOIC, read-out: MIC50 Escherichia coli D21f2toIC. From the text:
(§2) Antibacterial activity was quantified using broth microdilution [Clinical and Laboratory Standards Institute (CLSUNCCLS), Methods for Dilution Antimicrobial Susceptibility Tests for Bacteria That Grow Aerobically; Approved Standard, Eighth Edition. CLIS Document M07-A8 (CLIS, Wayne Pa.), 2009]. Assays with Enterobacter cloacae ATCC 13047, Pseudomonas aeruginosa ATCC10145, and Escherichia coli D21f2to1C, employed a starting cell density of 2-5×10^5 cfu/ml, Mueller Hinton II cation adjusted broth (BD Biosciences, Inc.), and an air atmosphere. Assays with Haemophilus influenzae ATCC49247 and Neisseria gonorrhoeae ATCC 19424 employed a starting cell density of 2-5×10^5 cfu/ml, Haemophilus Test Medium broth (Barry et al., 1993) and a 5% CO2/95% air atmosphere. MIC50 was defined as the minimal concentration resulting in ≧50% inhibition of bacterial growth.
For orientation: In broth dilution the organism is exposed to a series of concentrations in liquid medium.

The test system of data set [2] is Enterobacter cloacae ATCC 13047. Description: Antibacterial activity, broth microdilution, Enterobacter cloacae. It counts as cell-based. The settings on record: Enterobacter cloacae, ATCC13047; minimal concentration resulting in ≧50% inhibition of bacterial growth.
Source text: as §2

Another data set relates to Vero E6 ATCC CRL1586. Description: Cytotoxicity to mammalian cells in culture (CellTiter96). It counts as cell-based. The settings on record: mammalian cells in culture. From the text: MICs for mammalian cells (Vero E6) in culture were quantified using CellTiter96 assay (Promega. Inc.; procedures as specified by the manufacturer). Screening data for SalA and SalB (compounds 1 and 2) and representative compounds of this invention (compounds 3-9) are presented in Tables 1-2: […]

The next data set has as its system Sal-resistant mutants. As to the kind of experiment: Cross-resistance of Sal-resistant mutants to other RNAP inhibitors. It counts as cell-based. The conditions noted are these: disclosed herein.

≈ marks a conversion by molar mass, not a printed value. *1 amine or outer side, *2 acyl side, *3 side chain or, on linkers, in order; H or OH if unused. Where a SMILES comes first, the peptide text is derived from it. Bridges are numbered along the chain shown (N, C = ends). [ ]: non-standard residue; d: D form. The star is where a group is joined. X4 = C[C@@H](Oc1ccc([C@H](N[*:1])C(=O)[*:2])cc1)[C@](O)(/C=C/C(=O)[*:3])CNCCCCCCNC(=O)OC(C)(C)C; X5 = C[C@@H](Oc1ccc([C@H](N[*:1])C(=O)[*:2])cc1)[C@](O)(/C=C/C(=O)[*:3])CNCCCNC(=O)OC(C)(C)C; X2 = CCCCOC[C@@](O)(/C=C/C(=O)[*:3])[C@@H](C)Oc1ccc([C@H](N[*:1])C(=O)[*:2])cc1; X1 = C[C@@H](Oc1ccc([C@H](N[*:1])C(=O)[*:2])cc1)[C@](O)(/C=C/C(=O)[*:3])CBr; X6 = CCCCOC(/C=C/C(=O)[*:3])(CO)[C@@H](C)Oc1ccc([C@H](N[*:1])C(=O)[*:2])cc1; X3 = C[C@@H](Oc1ccc([C@H](N[*:1])C(=O)[*:2])cc1)[C@](O)(/C=C/C(=O)[*:3])CO; Pentanoyl(2R-Me,3R-OH,4-Me) = CC(C)[C@@H](O)[C@@H](C)C(=O)*; d(aIle) = CC[C@H](C)[C@@H](N)C(=O)O; d(aThr) = C[C@@H](O)[C@@H](N)C(=O)O; NMeF = CN[C@@H](Cc1ccccc1)C(=O)O Some results are limits rather than exact numbers.

Escherichia coli RNAP, sequence (P0A800 whole entry, the tested form may be a part): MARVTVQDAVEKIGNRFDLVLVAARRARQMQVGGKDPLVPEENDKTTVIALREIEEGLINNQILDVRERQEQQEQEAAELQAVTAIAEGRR
Escherichia coli RNAP, sequence (P00579 whole entry, further chain, the tested form may be a part): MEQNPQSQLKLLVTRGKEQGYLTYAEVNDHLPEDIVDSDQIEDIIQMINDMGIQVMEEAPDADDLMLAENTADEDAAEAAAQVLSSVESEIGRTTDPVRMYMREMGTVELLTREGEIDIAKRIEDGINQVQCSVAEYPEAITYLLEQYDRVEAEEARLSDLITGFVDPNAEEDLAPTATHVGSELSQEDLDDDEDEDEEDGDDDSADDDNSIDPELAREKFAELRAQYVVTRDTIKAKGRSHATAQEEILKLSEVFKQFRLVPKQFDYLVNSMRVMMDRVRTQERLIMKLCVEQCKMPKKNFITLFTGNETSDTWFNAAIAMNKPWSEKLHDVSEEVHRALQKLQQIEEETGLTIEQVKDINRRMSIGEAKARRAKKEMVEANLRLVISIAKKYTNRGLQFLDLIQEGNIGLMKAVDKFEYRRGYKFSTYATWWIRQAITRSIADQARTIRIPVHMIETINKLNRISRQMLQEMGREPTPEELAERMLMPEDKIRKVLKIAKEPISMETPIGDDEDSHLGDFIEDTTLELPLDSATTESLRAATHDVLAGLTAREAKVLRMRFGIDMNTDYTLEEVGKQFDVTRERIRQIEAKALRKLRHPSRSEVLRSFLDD
Escherichia coli RNAP, sequence (P0A8V2 whole entry, the tested form may be a part): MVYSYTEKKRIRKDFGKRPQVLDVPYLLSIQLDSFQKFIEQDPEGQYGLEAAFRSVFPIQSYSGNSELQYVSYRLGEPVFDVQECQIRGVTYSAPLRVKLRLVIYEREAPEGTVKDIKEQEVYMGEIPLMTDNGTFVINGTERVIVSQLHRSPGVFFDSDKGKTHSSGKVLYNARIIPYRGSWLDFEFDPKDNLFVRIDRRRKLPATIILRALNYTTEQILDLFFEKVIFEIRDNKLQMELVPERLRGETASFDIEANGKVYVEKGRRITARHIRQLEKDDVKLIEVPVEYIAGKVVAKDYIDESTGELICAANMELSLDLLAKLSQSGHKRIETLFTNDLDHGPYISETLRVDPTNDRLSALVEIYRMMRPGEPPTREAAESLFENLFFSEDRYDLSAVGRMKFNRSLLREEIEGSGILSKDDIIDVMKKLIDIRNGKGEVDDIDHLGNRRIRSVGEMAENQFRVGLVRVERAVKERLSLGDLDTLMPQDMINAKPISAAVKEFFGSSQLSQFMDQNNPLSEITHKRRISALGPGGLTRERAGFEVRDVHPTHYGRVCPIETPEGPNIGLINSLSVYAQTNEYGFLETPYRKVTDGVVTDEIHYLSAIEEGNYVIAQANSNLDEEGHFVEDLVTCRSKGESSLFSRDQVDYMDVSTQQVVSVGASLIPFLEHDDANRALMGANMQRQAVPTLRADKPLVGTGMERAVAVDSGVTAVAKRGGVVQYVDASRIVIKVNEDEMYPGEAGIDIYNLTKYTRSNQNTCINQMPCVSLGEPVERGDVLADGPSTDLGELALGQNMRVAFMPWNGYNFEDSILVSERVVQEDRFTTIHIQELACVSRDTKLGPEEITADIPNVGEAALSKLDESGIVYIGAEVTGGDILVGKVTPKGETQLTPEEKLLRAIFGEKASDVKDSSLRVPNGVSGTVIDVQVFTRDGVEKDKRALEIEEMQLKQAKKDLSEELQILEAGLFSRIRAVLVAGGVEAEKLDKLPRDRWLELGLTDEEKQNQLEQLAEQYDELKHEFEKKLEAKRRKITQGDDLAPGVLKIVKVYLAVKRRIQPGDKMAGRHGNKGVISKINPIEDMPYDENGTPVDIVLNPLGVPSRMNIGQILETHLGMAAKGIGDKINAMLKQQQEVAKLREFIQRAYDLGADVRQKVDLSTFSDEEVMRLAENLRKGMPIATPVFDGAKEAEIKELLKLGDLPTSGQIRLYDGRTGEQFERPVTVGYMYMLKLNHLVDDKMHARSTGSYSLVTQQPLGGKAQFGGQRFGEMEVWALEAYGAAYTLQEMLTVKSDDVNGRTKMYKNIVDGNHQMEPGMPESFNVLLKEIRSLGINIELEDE
Escherichia coli RNAP, sequence (P0A8T7 whole entry, the tested form may be a part): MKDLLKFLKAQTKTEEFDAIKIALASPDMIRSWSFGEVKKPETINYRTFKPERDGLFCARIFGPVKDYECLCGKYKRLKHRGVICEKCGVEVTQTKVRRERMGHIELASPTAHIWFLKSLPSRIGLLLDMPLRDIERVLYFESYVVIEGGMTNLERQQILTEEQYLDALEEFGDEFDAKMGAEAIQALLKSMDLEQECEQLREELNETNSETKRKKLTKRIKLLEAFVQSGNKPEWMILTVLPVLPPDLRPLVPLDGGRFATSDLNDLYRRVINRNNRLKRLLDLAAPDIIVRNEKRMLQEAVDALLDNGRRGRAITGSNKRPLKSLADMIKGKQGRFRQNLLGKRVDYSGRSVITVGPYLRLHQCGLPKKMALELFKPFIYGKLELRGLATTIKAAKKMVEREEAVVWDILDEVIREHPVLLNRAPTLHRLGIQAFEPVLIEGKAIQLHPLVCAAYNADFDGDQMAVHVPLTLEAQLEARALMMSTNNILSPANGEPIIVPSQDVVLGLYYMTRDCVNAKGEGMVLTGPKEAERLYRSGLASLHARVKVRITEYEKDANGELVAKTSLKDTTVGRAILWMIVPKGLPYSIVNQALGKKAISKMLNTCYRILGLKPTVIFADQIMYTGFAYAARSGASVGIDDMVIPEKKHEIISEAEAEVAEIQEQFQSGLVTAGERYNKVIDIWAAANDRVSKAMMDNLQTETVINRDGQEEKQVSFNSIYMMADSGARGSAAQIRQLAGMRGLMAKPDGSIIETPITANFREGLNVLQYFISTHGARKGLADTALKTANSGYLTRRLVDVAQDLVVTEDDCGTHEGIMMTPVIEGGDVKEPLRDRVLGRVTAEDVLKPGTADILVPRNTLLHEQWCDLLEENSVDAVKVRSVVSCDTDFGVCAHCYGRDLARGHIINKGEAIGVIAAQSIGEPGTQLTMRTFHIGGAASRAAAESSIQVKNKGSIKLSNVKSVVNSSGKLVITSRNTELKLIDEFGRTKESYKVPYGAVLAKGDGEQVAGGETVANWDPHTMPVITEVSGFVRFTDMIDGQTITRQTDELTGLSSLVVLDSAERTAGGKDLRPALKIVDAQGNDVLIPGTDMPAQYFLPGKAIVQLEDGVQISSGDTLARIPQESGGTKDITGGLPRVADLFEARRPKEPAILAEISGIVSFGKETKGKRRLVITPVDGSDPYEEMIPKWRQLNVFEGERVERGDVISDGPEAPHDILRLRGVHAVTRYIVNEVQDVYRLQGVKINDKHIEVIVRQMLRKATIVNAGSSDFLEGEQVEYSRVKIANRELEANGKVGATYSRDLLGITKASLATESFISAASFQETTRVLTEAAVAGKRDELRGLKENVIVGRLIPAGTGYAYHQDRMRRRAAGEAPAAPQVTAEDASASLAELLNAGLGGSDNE
Escherichia coli RNAP, sequence (P0A7Z4 whole entry, further chain, the tested form may be a part): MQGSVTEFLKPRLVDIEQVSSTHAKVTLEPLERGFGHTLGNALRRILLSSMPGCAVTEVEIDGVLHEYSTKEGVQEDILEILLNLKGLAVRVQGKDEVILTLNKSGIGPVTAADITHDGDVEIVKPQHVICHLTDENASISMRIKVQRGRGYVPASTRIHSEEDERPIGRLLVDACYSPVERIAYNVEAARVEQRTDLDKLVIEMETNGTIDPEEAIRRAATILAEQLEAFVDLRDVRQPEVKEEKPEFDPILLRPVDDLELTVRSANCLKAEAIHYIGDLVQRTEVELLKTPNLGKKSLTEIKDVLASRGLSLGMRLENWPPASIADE

Take `CC[C@H](C)[C@H]1NC(=O)[C@@H](NC(=O)[C@H](C)[C@H](O)C(C)C)[C@@H](C)OC(=O)[C@@H]2COC(=O)CNC(=O)/C=C/[C@](O)(CBr)[C@@H](C)Oc3ccc(cc3)[C@H](NC1=O)C(=O)N(C)[C@@H](Cc1ccccc1)C(=O)N[C@H]([C@@H](C)O)C(=O)N2` [Sal-Br (3)] ({Pentanoyl(2R-Me,3R-OH,4-Me)}-T[d(aIle)][X1][NMeF][d(aThr)]S; ester 1-C; linker 3-6 via G): the values for the half-maximal inhibitory concentration (IC50) on Escherichia coli RNAP and with human RNAP I/II/III were 3000 nM and more than 100000 nM, respectively. Further, the RNAP-inhibitory activity entry at Escherichia coli RNAP (in words, refers to Table 1) is reported as “essentially full”. Besides, the MIC50 (as a rule, an inhibitory concentration at the 50% level, which refers to growth in some studies and to a panel of isolates in others) in data set [1] was found to be 0.049 µg/mL (≈ 0.0445 µM); in data set [2], 1.56 µg/mL (≈ 1.42 µM). For the same compound, in data set [1] (in words, refers to Table 2), the antibacterial activity entry is “essentially full”. For the same compound, the “MIC50 Vero E6 ATCC CRL1586” value against Vero E6 ATCC CRL1586 was more than 100 µg/mL.

Take `CC[C@H](C)[C@H]1NC(=O)[C@@H](NC(=O)[C@H](C)[C@H](O)C(C)C)[C@@H](C)OC(=O)[C@@H]2COC(=O)CNC(=O)/C=C/[C@](O)(CNCCCNC(=O)OC(C)(C)C)[C@@H](C)Oc3ccc(cc3)[C@H](NC1=O)C(=O)N(C)[C@@H](Cc1ccccc1)C(=O)N[C@H]([C@@H](C)O)C(=O)N2` [Sal-NH(CH2)3NHBoc (7)] ({Pentanoyl(2R-Me,3R-OH,4-Me)}-T[d(aIle)][X5][NMeF][d(aThr)]S; ester 1-C; linker 3-6 via G): the 50% inhibitory concentration (IC50) (commonly the concentration at which inhibition is half-maximal) against Escherichia coli RNAP was determined as 600 nM. Also, the MIC50 in data set [1] is 1.56 µg/mL (≈ 1.31 µM); in data set [2] it was 100 µg/mL (≈ 83.7 µM).

With `CC[C@H](C)[C@H]1NC(=O)[C@@H](NC(=O)[C@H](C)[C@H](O)C(C)C)[C@@H](C)OC(=O)[C@@H]2COC(=O)CNC(=O)/C=C/[C@](O)(CNCCCCCCNC(=O)OC(C)(C)C)[C@@H](C)Oc3ccc(cc3)[C@H](NC1=O)C(=O)N(C)[C@@H](Cc1ccccc1)C(=O)N[C@H]([C@@H](C)O)C(=O)N2` [Sal-NH(CH2)6NHBoc (9)] ({Pentanoyl(2R-Me,3R-OH,4-Me)}-T[d(aIle)][X4][NMeF][d(aThr)]S; ester 1-C; linker 3-6 via G), the IC50 on Escherichia coli RNAP worked out at 1000 nM. Also, the results for the MIC50 in data set [1] and in data set [2] were 0.78 µg/mL (≈ 0.631 µM) and 25 µg/mL (≈ 20.2 µM), respectively.

On to `CCCCOC[C@@]1(O)/C=C/C(=O)NCC(=O)OC[C@@H]2NC(=O)[C@@H]([C@@H](C)O)NC(=O)[C@H](Cc3ccccc3)N(C)C(=O)[C@@H](NC(=O)[C@@H]([C@@H](C)CC)NC(=O)[C@@H](NC(=O)[C@H](C)[C@H](O)C(C)C)[C@@H](C)OC2=O)c2ccc(cc2)O[C@@H]1C` [Sal-OBu A (5A)] ({Pentanoyl(2R-Me,3R-OH,4-Me)}-T[d(aIle)][X2][NMeF][d(aThr)]S; ester 1-C; linker 3-6 via G), for which, at Escherichia coli RNAP, it took 6000 nM to reach half-maximal inhibition (IC50). Besides, the MIC50 came to 1.56 µg/mL (≈ 1.43 µM) in data set [1] and 12.5 µg/mL (≈ 11.4 µM) in data set [2].

Consider `CCCCOC1(CO)/C=C/C(=O)NCC(=O)OC[C@@H]2NC(=O)[C@@H]([C@@H](C)O)NC(=O)[C@H](Cc3ccccc3)N(C)C(=O)[C@@H](NC(=O)[C@@H]([C@@H](C)CC)NC(=O)[C@@H](NC(=O)[C@H](C)[C@H](O)C(C)C)[C@@H](C)OC2=O)c2ccc(cc2)O[C@@H]1C` (stereo partly drawn) [Sal-OBu B (5B)] ({Pentanoyl(2R-Me,3R-OH,4-Me)}-T[d(aIle)][X6][NMeF][d(aThr)]S; ester 1-C; linker 3-6 via G), for which, on Escherichia coli RNAP, the IC50 is more than 25000 nM.

`CC[C@H](C)[C@H]1NC(=O)[C@@H](NC(=O)[C@H](C)[C@H](O)C(C)C)[C@@H](C)OC(=O)[C@@H]2COC(=O)CNC(=O)/C=C/[C@](O)(CO)[C@@H](C)Oc3ccc(cc3)[C@H](NC1=O)C(=O)N(C)[C@@H](Cc1ccccc1)C(=O)N[C@H]([C@@H](C)O)C(=O)N2` [Sal-OH (4)] ({Pentanoyl(2R-Me,3R-OH,4-Me)}-T[d(aIle)][X3][NMeF][d(aThr)]S; ester 1-C; linker 3-6 via G) showed a concentration for half-maximal inhibition (IC50) at Escherichia coli RNAP of 2000 nM. The MIC50 was determined as 0.78 µg/mL (≈ 0.751 µM) in data set [1] and 25 µg/mL (≈ 24.1 µM) in data set [2].

As for `CNC(=O)[C@@H](C)[C@H]1C(=O)/C(=C(O)/C=C/C(C)=C/[C@@H](C)[C@H]2O[C@@]3(C)O[C@H](C=C[C@@]34CO4)[C@@H]2C)C(=O)N1[C@@H]1CC[C@H](O)[C@H](C)O1` [streptolydigin], in the data set on Sal-resistant mutants, the “cross-resistance of Sal-resistant mutants to the compound” value (from here on “cross-resistance”) was “do not exhibit cross-resistance”.

Turning to lipiarmycin, the “cross-resistance” value in the data set on Sal-resistant mutants is reported as “do not exhibit cross-resistance”.

With myxopyronin, the “cross-resistance” value in the data set with Sal-resistant mutants is “do not exhibit cross-resistance”.
